Experiments:
5-HT2-receptor = settings: qualitative background statement; cited from earlier work
5-HT1A receptor = biological target: T1, 5-HT1A receptor (Homo sapiens, UniProt P08908); settings: qualitative background statement; cited from earlier work
T1 sequence (P08908 1-422): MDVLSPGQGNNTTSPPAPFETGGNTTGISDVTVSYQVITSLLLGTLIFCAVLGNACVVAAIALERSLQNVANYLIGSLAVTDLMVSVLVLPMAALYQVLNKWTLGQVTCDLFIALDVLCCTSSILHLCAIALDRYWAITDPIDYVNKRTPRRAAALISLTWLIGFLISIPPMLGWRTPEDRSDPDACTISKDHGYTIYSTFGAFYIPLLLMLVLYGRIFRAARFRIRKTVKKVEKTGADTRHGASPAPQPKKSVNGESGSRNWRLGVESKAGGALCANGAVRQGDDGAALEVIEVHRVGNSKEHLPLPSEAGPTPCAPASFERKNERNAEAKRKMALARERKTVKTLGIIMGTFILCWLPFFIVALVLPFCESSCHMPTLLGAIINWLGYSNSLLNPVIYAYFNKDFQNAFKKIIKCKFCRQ

[1] = stability under mechanical stress produced by grinding; type: physicochemical; settings: solid state, crystalline modification of free base

| Compound | affinity for the 5-HT2-receptor (5-HT2-receptor) | affinity for the 5-HT1A receptor (5-HT1A receptor) | stability under the effects of mechanical stress produced by grinding [1] |
| --- | --- | --- | --- |
| O=c1[nH]c2ccccc2n1CCN1CCN(c2cccc(C(F)(F)F)c2)CC1 [Flibanserin, 1-[2-(4-(3-trifluoromethyl-phenyl)piperazin-1-yl)ethyl]-2,3-dihydro-1H-benzimidazol-2-one] | shows affinity | shows affinity |  |
| O=c1[nH]c2ccccc2n1CCN1CCN(c2cccc(C(F)(F)F)c2)CC1 [polymorph A, 1-[2-(4-(3-trifluoromethyl-phenyl)piperazin-1-yl)ethyl]-2,3-dihydro-1H-benzimidazol-2-one] |  |  | fulfill the aforementioned stability requirements |
| O=c1[nH]c2ccccc2n1CCN1CCN(c2cccc(C(F)(F)F)c2)CC1 [polymorph B, 1-[2-(4-(3-trifluoromethyl-phenyl)piperazin-1-yl)ethyl]-2,3-dihydro-1H-benzimidazol-2-one] |  |  | little stability |

From patent US20160095855A1, “USE OF A POLYMORPH OF FLIBANSERIN FOR TREATING DISEASE” (Sprout Pharmaceuticals, Inc., priority 2001, published 2016)
